Key:
[1] = tested on: calcium activated neutral protease; conditions: in muscle, squid axoplasm and rat sciatic nerve; cited from earlier work
sciatic nerve [2] = assay: Counts of myelinated axons 5.0 mm proximal to repair by light microscopy; type: in vivo, rat; conditions: all time periods, treated nerves compared to control
Method: (§1) lwenty raty art anenthetizve with sel rompun (0.5 cc total volume). The right sciatic nerve is exposed and severed with microneuroscissors, and subsequently repaired microsurgically with 6-8 circumferential microsutures using 10-0 nylon. Immediately following surgery the treated animals receive 12 mg/kg Ac leupeptin in 5% DMSO (dimethylsulphoxide) as a bath on their sciatic nerve, 0.25 cc. total volume. Then the treated animals are injected intramuscularly in right hindlimb with 0.25 cc of a solution containing 12 mg/kg Ac leupeptin in 5% DMSO. Control animals receive the same surgical treatment, but the bath and intramuscular injection consist only of the solvent and 5% DMSO.
(§2) Thereafter, treated animals are injected twice weekly in the operated hindlimb with 12 mg/kg Ac leupeptin in 5% DMSO (0.25 cc total volume) for periods of 1 week, 1 month, two months, three months - and six months. Control animals are injected with 0.25 cc of 5% DMSO twice weekly in the operated hindlimb for the same time period.
(§3) Two treated and two control animals are assigned to each of the stated time periods.
(§4) A ten mm. portion of the repaired sciatic nerve is excised from each animal. This is fixed in 3.0% glutaraldehyde in 0.1 M sodium cacodylate, pH 7.3, overnight for electron microscopy. After post-fixation in 1.0% osmium tetroxide, ethanol dehydration and embedding in Polybed 812, both thick (1 micron) and thin (500 A°) transverse sections are cut on a ultramicrotome. Portions of the excised muscles receive similar preparation for electron microscopy.
(§5) Thick sections of the sciatic nerve are placed on microscope slots stained with toluidine blue and photographed at a constant magnification in the light microscope. Thin sections of both nerve and muscles are placed on 300 mesh copper grid calm, stained with uranyl acetate and lead citrate and photographed using a Hitachi HU-12 electron microscope.

papain = target: T1, papain (Carica papaya, UniProt P00784); conditions: cited from earlier work
T1 sequence (P00784 134-345): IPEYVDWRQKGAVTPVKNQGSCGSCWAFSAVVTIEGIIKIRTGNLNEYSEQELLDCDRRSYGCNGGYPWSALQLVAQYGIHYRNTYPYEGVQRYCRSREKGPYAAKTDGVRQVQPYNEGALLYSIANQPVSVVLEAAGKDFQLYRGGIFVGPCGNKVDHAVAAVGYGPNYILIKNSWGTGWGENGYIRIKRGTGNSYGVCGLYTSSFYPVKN

neurofiber regrowth [3] = assay: Neurofiber regrowth after microsurgical neurorrhaphy (summary of tables I-V); type: in vivo, mammals
Method: as §1, §2, §3
All animals are sacrified by an overdose of pentobarbital, 1.0 cc total volume. […] Myofiber diameters are determined by photographing hematoxylin and eosin sections at a constant magnification in the light microscope. […]

neurofiber regrowth [4] = assay: Effective dose based upon laboratory tests; type: in vivo, mammals; conditions: of mammalian weight, single or divided doses
Description: The exact dose to be administered is dependent upon the age, weight and particular conditions of the individual involved.

cathespin B = conditions: in muscle, squid axoplasm and rat sciatic nerve; cited from earlier work
[5] = tested on: chicken pectoralis muscle; conditions: in vivo; cited from earlier work
sciatic nerve [6] = assay: Counts of myelinated and unmyelinated axons 5.0 mm distal to repair by electron microscopy; type: in vivo, rat; conditions: ultrastructural data, up to and including 6 months of treatment
Method: as §1, §2, §3, §4, §5

thrombokinase = conditions: cited from earlier work
[7] = tested on: chicken and rat skeletal and fetal heart preparations; conditions: cited from earlier work
plasmin = plasmin (Homo sapiens, UniProt P00747); conditions: cited from earlier work
Chain of plasmin (P00747 97-810, species assumed): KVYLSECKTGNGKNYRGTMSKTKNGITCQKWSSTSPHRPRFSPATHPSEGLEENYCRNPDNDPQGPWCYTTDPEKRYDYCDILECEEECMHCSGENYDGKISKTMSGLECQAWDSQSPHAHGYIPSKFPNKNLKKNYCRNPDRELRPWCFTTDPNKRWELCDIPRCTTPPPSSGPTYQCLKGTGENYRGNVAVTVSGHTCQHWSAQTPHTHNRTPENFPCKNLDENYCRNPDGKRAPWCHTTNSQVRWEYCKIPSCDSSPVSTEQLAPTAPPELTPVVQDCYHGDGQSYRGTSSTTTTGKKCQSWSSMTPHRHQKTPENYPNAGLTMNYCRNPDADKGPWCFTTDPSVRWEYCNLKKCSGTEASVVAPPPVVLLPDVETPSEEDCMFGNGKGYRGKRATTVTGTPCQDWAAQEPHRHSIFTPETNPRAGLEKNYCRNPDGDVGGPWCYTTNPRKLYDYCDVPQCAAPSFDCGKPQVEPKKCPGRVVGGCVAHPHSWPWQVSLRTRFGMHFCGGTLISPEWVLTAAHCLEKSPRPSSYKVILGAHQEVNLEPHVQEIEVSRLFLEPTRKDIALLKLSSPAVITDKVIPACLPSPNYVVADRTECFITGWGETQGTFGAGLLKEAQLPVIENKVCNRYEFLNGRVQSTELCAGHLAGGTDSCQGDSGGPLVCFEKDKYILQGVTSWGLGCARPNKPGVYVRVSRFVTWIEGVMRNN

sciatic nerve [8] = assay: Counts of myelinated axons 5.0 mm distal to repair by light microscopy; type: in vivo, rat; conditions: treated nerves vs. control nerve
Method: as §1, §2, §3, §4, §5

kaleikrein = conditions: cited from earlier work
cathespin L = conditions: in muscle, squid axoplasm and rat sciatic nerve; cited from earlier work

CC(=O)N[C@@H](CC(C)C)C(=O)N[C@@H](CC(C)C)C(=O)N[C@H](C=O)CCCNC(=N)N [leupeptin]
inhibition of calcium activated neutral protease [1]: inhibited
number of myelinated axons proximal to repair (sciatic nerve [2]): significantly higher number of myelinated axons when compared to control
inhibition of papain (papain): effective inhibitor
neurofiber regrowth (neurofiber regrowth [3]): significantly enhances neurofiber regrowth
ED50 (neurofiber regrowth [4]): 8 to 75 mg/kg
inhibition of cathespin B (cathespin B): inhibited
denervation induced atrophy [5]: successfully used in vivo as an inhibitor of denervation induced atrophy
numbers of both myelinated and unmyelinated axons distal to the repair site (sciatic nerve [6]): increased numbers of both myelinated and unmyelinated axons
inhibition of thrombokinase (thrombokinase): effective inhibitor
protein degradation [7]: decreased protein degradation
protein synthesis [7]: no effect on protein synthesis
inhibition of plasmin (plasmin): effective inhibitor
Wallerian degeneration distal to repair (sciatic nerve [8]): do not undergo as severe a form of Wallerian degeneration as the control nerve
inhibition of kaleikrein (kaleikrein): effective inhibitor
inhibition of cathespin L (cathespin L): inhibited
